Reference: PMC6792352, “Limited Chemical Structural Diversity Found to Modulate Thyroid Hormone Receptor in the Tox21 Chemical Library” (Environmental Health Perspectives, 2019)
Counter-ions that a name gives are not always drawn.

Assay: in vitro
Details: rat, gh3-tre-luc cells

SMILES	CC50 at 24 h (AC50 (uM) modified / 1000) [µM]	other results
O=Cc1cccc(Oc2ccccc2)c1 [3-Phenoxybenzaldehyde]	–	CC50 at 24 h (AC50 (uM) modified / 1000, Tox21_110001=Tox21_202368, viability, 1 nM T3 present, 24 h): > 90 µM
Cc1cc(C(F)(C(F)(F)F)C(F)(F)F)ccc1NC(=O)c1cccc(I)c1C(=O)NC(C)(C)CS(C)(=O)=O [Flubendiamide]	> 70	–
CC(C)(CO)[N+](=O)[O-] [2-Methyl-2-nitro-1-propanol]	> 90	–
CCNc1nc(NC(C)CC)nc(OC)n1 (stereo not drawn) [Secbumeton]	> 90	–
CN(C)CCc1c[nH]c2cccc(OP(=O)(O)O)c12 [Psilocybin]	> 90	–
Oc1cc(O)cc(O)c1 [1,3,5-Trihydroxybenzene dihydrate]	> 50	–
COc1ccc(Cc2cnc(N)nc2N)cc1OC [Diaveridine]	> 50	–
CCOC(=O)COc1cc(-c2nn(C)c(OC(F)F)c2Cl)c(F)cc1Cl [Pyraflufen-ethyl]	–	CC50 at 24 h (AC50 (uM) modified / 1000, Tox21_110001=Tox21_300698, viability, 1 nM T3 present, 24 h): > 90 µM
CC(=O)Nc1ccc(O)cc1 [Acetaminophen]	> 50	–
CC(C)(C)OC(=O)c1cccc(N)c1 [tert-Butyl-3-aminobenzoate]	> 90	–
CCCCc1ccc(O)cc1 [4-Butylphenol]	92.9	–
O[C@@H]1CO[C@H]2[C@@H]1OC[C@@H]2O [Isosorbide]	> 50	–
CCCCCCCCCCCCCCCBr [1-Bromopentadecane]	> 50	–
CN(C)CCn1nnnc1SCC1=C(C(=O)O)N2C(=O)[C@@H](NC(=O)Cc3csc(N)n3)[C@H]2SC1 [Cefotiam hydrochloride]	> 20	–
NS(=O)(=O)c1cc2c(cc1Cl)N=CNS2(=O)=O [Chlorothiazide]	> 90	–
O=C1c2ccccc2CN2C(=O)c3ccccc3CN12 [Diftalone]	> 50	–
Cc1cnc(C)c(C)n1 [2,3,5-Trimethylpyrazine]	> 100	–
OCCc1ccncc1 [2-(Pyridin-4-yl)ethanol]	> 90	–
CC(C)(O)C(=O)Nc1ccc([N+](=O)[O-])c(C(F)(F)F)c1 [Hydroxyflutamide]	> 90	–
CCCCCCCCCCC=CC#N [Tridec-2-enenitrile]	> 90	–
CCCCC(CC)COC(=O)CC#N (stereo not drawn) [2-Ethylhexyl cyanoacetate]	> 90	–

SMILES	CC50 at 24 h (AC50 (uM) modified / 1000) [µM]	other results
CCc1ccc(O)c(OC)c1 [4-Ethyl-2-methoxyphenol]	> 90	–
CN(C)C(=O)Oc1cccc([N+](C)(C)C)c1 [Neostigmine bromide]	> 50	–
CCCCCCCCCCCC(=O)N(CCO)CCO [N,N-Bis(2-hydroxyethyl)dodecanamide]	42.5	–
COc1ccc(C[C@H](N)C(=O)N[C@H]2[C@@H](O)[C@H](n3cnc4c(N(C)C)ncnc43)O[C@@H]2CO)cc1 [Puromycin dihydrochloride]	11.2	–
c1ccc(CCc2ccccc2)cc1 [Bibenzyl]	> 90	–
CC(C)(C)NCC(O)COc1cccc2c1C[C@H](O)[C@H](O)C2 (mixture of isomers) [Nadolol]	> 20	–
O=[N+]([O-])c1ccc(O)c2ncccc12 [Nitroxoline]	4.94	–
O=C(Nc1ccccc1)c1cc([N+](=O)[O-])ccc1Cl [2-Chloro-5-nitro-N-phenylbenzamide]	49.9	–
CCc1ncnc2cc(OC)c(OC)cc12 [Quazodine]	> 50	–
CN(C)C(=O)Nc1ccc(Cl)c(Cl)c1 [Diuron]	> 90	–
CCCCCCCCN1CCCC1=O [1-Octyl-2-pyrrolidone]	> 90	–
Cl[Si](Cl)(c1ccccc1)c1ccccc1 [Dichlorodiphenylsilane]	> 90	–
CC(C)N1CCN(c2ccc(OC[C@H]3CO[C@](Cn4cncn4)(c4ccc(Cl)cc4Cl)O3)cc2)CC1 (racemic) [Terconazole]	5.35	–
CC(C)COC(=O)COc1cc(Cl)c(Cl)cc1Cl [Isobutyl (2,4,5-trichlorophenoxy)acetate]	> 90	–
C=CC(=O)NCOCC(C)C [N-(Isobutoxymethyl)acrylamide]	> 90	–
O=C1CCc2cc(OCCCCc3nnnn3C3CCCCC3)ccc2N1 [Cilostazol]	> 50	–
Cc1ccc2cc(C)ccc2c1 [2,6-Dimethylnaphthalene]	–	CC50 at 24 h (AC50 (uM) modified / 1000, Tox21_110001=Tox21_200260, viability, 1 nM T3 present, 24 h): > 90 µM
CCCCCCC1CCC(=O)O1 (stereo not drawn) [gamma-Decanolactone]	> 90	–
Cc1cc(C)c(C)c(O)c1 [2,3,5-Trimethylphenol]	> 90	–
CN(C1CCCCC1)S(=O)(=O)c1ccccc1N [2-Amino-N-cyclohexyl-N-methylbenzenesulfonamide]	> 90	–
CC(CN1c2ccccc2Sc2ccc(S(=O)(=O)N(C)C)cc21)N(C)C (stereo not drawn) [Fonazine]	21.4	–

SMILES	CC50 at 24 h (AC50 (uM) modified / 1000) [µM]	other results
Oc1ccccc1 [Phenol]	> 50	–
CO/N=C(\C(=O)N[C@@H]1C(=O)N2C(C(=O)O)=C(COC(N)=O)CS[C@H]12)c1ccco1 [Cefuroxime]	> 90	–
CCOC(=O)CC1(C)OCC(C)O1 (stereo not drawn) [Ethyl 2,4-dimethyl-1,3-dioxolane-2-acetate]	> 90	–
C[C@H]1C[C@H]2[C@@H]3CCC4=CC(=O)C=C[C@]4(C)[C@@]3(F)[C@@H](O)C[C@]2(C)[C@@]1(O)C(=O)CO [Betamethasone]	> 90	–
O=C1C=CC(=O)O1 [2,5-Furandione]	> 100	–
CCC(C)(C)c1ccc(CC(C)CN2C[C@@H](C)O[C@@H](C)C2)cc1 (stereo partly drawn) [Amorolfine]	11.1	–
CC[C@@]1(c2ccccc2)NC(=O)N(C)C1=O [(S)-Mephenytoin]	> 50	–
C=CC(=O)OCCCCCCCC [Octyl prop-2-enoate]	> 90	–
C[C@]12CC[C@@H]3c4ccc(O)cc4CC[C@H]3[C@@H]1CC[C@H]2O [17alpha-Estradiol]	> 90	–
C/C=C(\C)C(=O)OCC/C=C\CC [(3Z)-Hex-3-en-1-yl (2E)-2-methylbut-2-enoate]	> 90	–
CCCCS [1-Butanethiol]	> 90	–
CC1=CC[C@@H](C(C)(C)O)CC1 [alpha-Terpineol]	> 90	–
NNc1nnc(NN)c2ccccc12 [Dihydralazine]	> 50	–
Cc1ccc2c(c1)OCC(=O)CO2 [7-Methyl-2H-1,5-benzodioxepin-3(4H)-one]	> 90	–
Nc1nc(/C(=C/CC(=O)O)C(=O)N[C@@H]2C(=O)N3C(C(=O)O)=CCS[C@H]23)cs1 [Ceftibuten]	> 50	–
COC(C)(C)OC [2,2-Dimethoxypropane]	> 90	–
CCC(C)C(C)=O (stereo not drawn) [3-Methyl-2-pentanone]	> 90	–
CNCCCN1c2ccccc2CCc2ccccc21 [Desipramine hydrochloride]	7.08	–
[Cl][Cd][Cl] [Cadmium chloride]	–	CC50 at 24 h (AC50 (uM) modified / 1000, Tox21_110001=Tox21_202229, viability, 1 nM T3 present, 24 h): 26.6 µM; CC50 at 24 h (AC50 (uM) modified / 1000, Tox21_110001=Tox21_303000, viability, 1 nM T3 present, 24 h): 32.6 µM
CNC(=O)Oc1cccc(N=CN(C)C)c1 [Formetanate hydrochloride]	–	CC50 at 24 h (AC50 (uM) modified / 1000, Tox21_110001=Tox21_300778, viability, 1 nM T3 present, 24 h): > 90 µM
CC12CCC(C[N+](C)(CCC[N+](C)(C)C)C1)C2(C)C (stereo not drawn) [Trimethidinium methyl sulfate]	> 50	–

SMILES	CC50 at 24 h (AC50 (uM) modified / 1000) [µM]	other results
O=C(O)COc1nc(Cl)c(Cl)cc1Cl [Triclopyr]	> 90	–
O=S(=O)(NS(=O)(=O)C(F)(F)F)C(F)(F)F [Triethylsulfonium bis(trifluoromethanesulfonyl)imide]	> 90	–
CN(C)CCCSc1ccccc1NC(=O)/C=C/c1ccccc1 [Cinanserin]	22.6	–
CC(=O)NCCO [N-(2-Hydroxyethyl)acetamide]	> 90	–
CCCCCCCCCCCCCC(=O)OCC(COP(=O)([O-])OCC[N+](C)(C)C)OC(=O)CCCCCCCCCCCCC (racemic) [1,2-Ditetradecanoyl-rac-glycerol-3-phosphocholine]	> 50	–
CCOC(=O)c1cccc(N)c1 [Ethyl 3-aminobenzoate methanesulfonic acid salt]	> 50	–
Cc1cccc(C)c1NC(=O)CN1CCCC1=O [Nefiracetam]	> 50	–
CCCCCCCCCCCCCCC[C@H](O)[C@@H](N)CO [Safingol]	> 50	–
CCCCCCCC/C=C\CCCCCCCC(=O)OCCCC [9-Octadecenoic acid (9Z)-, butyl ester]	> 20	–
CC(C)c1cccc(C(C)C)c1NC(=O)NS(=O)(=O)c1cc(C(C)(C)O)co1 [CP-465394]	> 90	–
NC1(c2ccc(-c3nc4ccn5c(=O)[nH]nc5c4cc3-c3ccccc3)cc2)CCC1 [MK-2206]	16.8	–
C[Si](NC1CCCCC1)(NC1CCCCC1)NC1CCCCC1 [N,N',N''-Tricyclohexyl-1-methylsilanetriamine]	> 90	–
Cc1ccc(C(C)(C)c2ccc(C)cc2)cc1 [2,2-Di-4-tolylpropane]	> 50	–
CC(C)CCC(=O)O[C@H]1CC[C@H]2[C@@H]3CCC4=CC(=O)CC[C@]4(C)[C@H]3CC[C@]12C [Testosterone isocaproate]	–	CC50 at 24 h (AC50 (uM) modified / 1000, Tox21_110001=Tox21_112669, viability, 1 nM T3 present, 24 h): 35.3 µM
Nc1ccc(N=Nc2ccccc2)cc1 [4-Aminoazobenzene]	> 90	–
O=C(O)CCCCCCCCCCCC(=O)O [Tridecanedioic acid]	> 90	–
CC1(C)C2C(=O)CCC(C)(C)[C@]23CC[C@H]1C3 (stereo partly drawn) [Isolongifolanone]	> 90	–
CC(C(O)c1ccc(O)cc1)N1CCC(Cc2ccccc2)CC1 (stereo not drawn) [Ifenprodil]	19.6	–
CC1(C)[C@@H](OC(=O)CCC(=O)O)CC[C@]2(C)[C@H]3C(=O)C=C4[C@@H]5C[C@@](C)(C(=O)O)CC[C@]5(C)CC[C@@]4(C)[C@]3(C)CC[C@@H]12 [Carbenoxolone sodium]	> 20	–
N[C@@H](Cc1c[nH]c2ccccc12)C(=O)O [l-Tryptophan]	> 90	–
